For orientation: EC50 means the concentration that produces a half-maximal response. The low end stands for a more potent agent, the high end for a less potent agent.

The assay is filed under the species Rattus norvegicus. Description: The compound was tested in vitro for the growth hormone release in rat pituitary cell assays. Type of assay: functional, Pituitary gland cell.
[1] abbreviates: Rattus norvegicus, Pituitary gland cell.

The structures appear in SMILES notation. Non-standard residues stand in square brackets, D forms with d. Residues, ends and D or L forms follow the SMILES beside them.

Under setting [1], `Cc1noc(-c2ccccc2-c2ccc(CN3C(=O)[C@H](NC(=O)CC(C)(C)N)CCc4ccccc43)cc2)n1` gave an EC50 of 1050 nM.
The same measure, in the same setting: to `Cn1ncnc1-c1ccccc1-c1ccc(CN2C(=O)[C@H](NC(=O)CC(C)(C)N)CCc3ccccc32)cc1` belongs 265 nM; to `CC(C)(N)CC(=O)N[C@@H]1CCc2ccccc2N(Cc2ccc(-c3sccc3-c3nn[nH]n3)cc2)C1=O`, 140 nM; to `CC(C)(N)CC(=O)N[C@@H]1CCc2ccccc2N(Cc2ccc(-c3cscc3-c3nn[nH]n3)cc2)C1=O`, 150 nM.
The same measure, in the same setting: the figure for `CC(C)(N)CC(=O)N[C@@H]1CCc2ccccc2N(Cc2ccc(-n3cccc3-c3nn[nH]n3)cc2)C1=O` is 275 nM; for `CC(C)(N)CC(=O)N[C@@H]1CCc2ccccc2N(Cc2ccc(-c3ccccc3-c3nc[nH]n3)cc2)C1=O` it is 90 nM.
Still for that read-out and setting: the figure for `CC(C)(N)CC(=O)N[C@@H]1CCc2ccccc2N(Cc2ccc(-c3cccnc3-c3nn[nH]n3)cc2)C1=O` is 2350 nM.
`COc1nsnc1-c1ccccc1-c1ccc(CN2C(=O)[C@H](NC(=O)CC(C)(C)N)CCc3ccccc32)cc1` had an EC50 under setting [1] of 1800 nM.
`CC(C)(N)CC(=O)N[C@@H]1CCc2ccccc2N(Cc2ccc(-c3ccccc3-c3ncno3)cc2)C1=O`: the EC50 under setting [1] was 30 nM.
Under “pituitary gland cell”, `CC(C)(N)CC(=O)N[C@@H]1CCc2ccccc2N(Cc2ccc(-c3ccccc3-c3nn[nH]n3)cc2)C1=O` displayed an EC50 of 125 nM.
Turning to `Cc1nnc(-c2cscc2-c2ccc(CN3C(=O)[C@H](NC(=O)CC(C)(C)N)CCc4ccccc43)cc2)o1`, the EC50 under setting [1] turned out to be 125 nM.
Same read-out and setting: to `CC(C)(N)CC(=O)N[C@@H]1CCc2ccccc2N(Cc2ccc(-c3ccccc3C(=O)O)cc2)C1=O` belongs 2500 nM; to `C[C@H](NC(=O)[C@@H](Cc1c[nH]c2ccccc12)NC(=O)[C@@H](N)Cc1c[nH]cn1)C(=O)N[C@@H](Cc1c[nH]c2ccccc12)C(=O)N[C@H](Cc1ccccc1)C(=O)N[C@@H](CCCCN)C(N)=O` (H-H[dW]AW[dF]K-NH2), 2 nM.

The values above are taken from ChEMBL document CHEMBL1129871, “INVESTIGATION OF BIOISOSTERS OF THE GROWTH HORMONE SECRETAGOGUE L-692,429” (Bioorg Med Chem Lett, 1997).
